From US6825185B2, “Substituted aryl compounds as novel cyclooxygenase-2 selective inhibitors, compositions and methods of use” (NitroMed, Inc., priority 2000, dated 2004)

Tests used:
[1] = biological target: COX-1 (Homo sapiens, UniProt P23219); test: COX-1 enzyme activity in human whole blood (A23187 stimulated, thromboxane B2 EIA); format: cell-based; design: Human blood (≈50 mL) from male or female donors who had not received any aspirin or NSAIDs for 14 days; endogenous in cells; host or cells: human whole blood from donors; settings: for COX-1 Inhibition (% at 100 μM): test compound at 100 μM
Experimental: (§1) The assay for COX-1 and COX-2 enzyme activity, in the human whole blood was performed as described in Brideau et al., Inflamm Res., 45: 68-74 (1996)). Human blood (≈50 mL) from male or female donors who had not received any aspirin or NSAIDs for 14 days was collected at two local area blood donor centers and placed in polypropylene syringes containing sodium heparin (20 units per mL blood, final concentration). The blood was transported to the laboratory on ice packs and used within 1.5 hours of collection. Upon receipt in the laboratory, the blood was allowed to come to room temperature for 15 minutes prior to distribution in 1 mL aliquots per well of 24 well tissue culture plates. The plates were then placed on a gently rotating platform shaker in a 5% CO2 incubator at 37° C. for 15 minutes. Test compounds were dissolved in DMSO, at 1000 fold the final desired concentration, and further diluted, as indicated, in DMSO. One μL of each dilution of the test compound was added per well, in duplicate wells; wells not receiving test compound (e.g., basal, background or control wells) received 1 μL DMSO.
(§2) To induce COX-2, lipopolysaccharide (LPS) from E. coli (LPS, serotype 026:B6 or serotype 0127:B8, Sigma Chemical Co., St. Louis, Mo., Catalogue No. L3755 or L3129, respectively) was added at 10 μg/mL (2 μL of 5 mg/mL LPS in DMSO) to appropriate wells 15 minutes after the addition of the test compound. (Basal or background wells not incubated with LPS received 2 μL of DMSO.) For the stimulation of COX-1, the calcium ionophore, A23187 (free acid from Sigma Chemical Co., St. Louis, Mo., Catalogue No. C7522) was added at 25 μM (1 μL of 25 mM stock in DMSO) to separate wells 4.5 hours after the addition of the test compound. (Again, basal, background or control wells not stimulated with A23187 received 1 μL of DMSO.) At 5 hours after the addition of the test compound, all incubations were terminated by placement on ice and the addition of 2 mM EGTA (100 μL of 20 mM EGTA, tetrasodium, in PBS (phosphate buffered saline) without Ca^++ and Mg^++, pH 7.2)). The resulting solutions, were transferred by polyethylene transfer pipettes to 15 mL polypropylene centrifuge tubes and centrifuged at 1200 g for 10 minutes at 4° C. One hundred μL of plasma was removed from each blood sample and added to 1 mL of methanol in new 15 mL polypropylene centrifuge tubes, vortexed, and stored overnight at −20° C. The next day, the samples were centrifuged at 2000 g for 10 minutes at 4° C. and the supernatants transferred to glass tubes and evaporated to dryness. The samples were assayed for thromboxane B2 using EIA kits supplied by Cayman Chemical Co. (Ann Arbor, Mich., Catalogue No. 519031) in duplicate wells after reconstitution with EIA Buffer and appropriate dilution (2000 fold for COX-1 and 500 fold for Cox-2 samples).

[2] = biological target: T1, COX-2 (Homo sapiens, UniProt P35354); test: COX-2 enzyme activity in human whole blood (LPS induced, thromboxane B2 EIA); format: cell-based; design: Human blood (≈50 mL) from male or female donors who had not received any aspirin or NSAIDs for 14 days; endogenous in cells; host or cells: human whole blood from donors, LPS-induced; settings: test compound at 10 μM
T1 sequence (P35354 18-604): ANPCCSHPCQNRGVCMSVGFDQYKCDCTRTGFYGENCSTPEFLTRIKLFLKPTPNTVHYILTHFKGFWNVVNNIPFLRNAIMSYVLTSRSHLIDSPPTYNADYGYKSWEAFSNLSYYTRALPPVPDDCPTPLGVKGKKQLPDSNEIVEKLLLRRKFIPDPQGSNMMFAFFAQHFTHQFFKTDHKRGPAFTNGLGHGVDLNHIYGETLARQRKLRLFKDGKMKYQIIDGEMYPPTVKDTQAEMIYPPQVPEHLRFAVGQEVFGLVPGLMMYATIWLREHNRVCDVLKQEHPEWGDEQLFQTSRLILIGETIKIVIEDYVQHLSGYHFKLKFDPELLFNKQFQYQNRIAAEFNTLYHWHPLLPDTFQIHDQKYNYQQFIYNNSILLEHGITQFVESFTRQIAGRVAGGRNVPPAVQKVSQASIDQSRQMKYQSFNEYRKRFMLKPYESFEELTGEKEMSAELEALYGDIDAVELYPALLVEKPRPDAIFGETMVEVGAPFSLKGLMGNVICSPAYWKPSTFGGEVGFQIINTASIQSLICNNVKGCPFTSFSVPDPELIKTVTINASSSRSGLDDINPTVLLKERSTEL
Experimental: as §1, with “Human” for “The assay for COX-1 and COX-2 enzyme activity, in the human whole blood was performed as described in Brideau et al., Inflamm Res., 45: 68-74 (1996)). Human”
as §2, with “(Basal or background wells not incubated with LPS received 2 μL of DMSO.) For the stimulation of COX-1, the calcium ionophore, A23187 (free acid from Sigma Chemical Co., St. Louis, Mo., Catalogue No. C7522) was added at 25 μM (1 μL of 25 mM stock in DMSO) to separate wells 4.5 hours after the addition of the test compound.” left out, “dryness.” for “dryness. The samples were assayed for thromboxane B2 using EIA kits supplied by Cayman Chemical Co. (Ann Arbor, Mich., Catalogue No. 519031) in duplicate wells after reconstitution with EIA Buffer and appropriate dilution (2000 fold for COX-1 and 500 fold for Cox-2 samples).”

Sequence of COX-1 (P23219 24-599): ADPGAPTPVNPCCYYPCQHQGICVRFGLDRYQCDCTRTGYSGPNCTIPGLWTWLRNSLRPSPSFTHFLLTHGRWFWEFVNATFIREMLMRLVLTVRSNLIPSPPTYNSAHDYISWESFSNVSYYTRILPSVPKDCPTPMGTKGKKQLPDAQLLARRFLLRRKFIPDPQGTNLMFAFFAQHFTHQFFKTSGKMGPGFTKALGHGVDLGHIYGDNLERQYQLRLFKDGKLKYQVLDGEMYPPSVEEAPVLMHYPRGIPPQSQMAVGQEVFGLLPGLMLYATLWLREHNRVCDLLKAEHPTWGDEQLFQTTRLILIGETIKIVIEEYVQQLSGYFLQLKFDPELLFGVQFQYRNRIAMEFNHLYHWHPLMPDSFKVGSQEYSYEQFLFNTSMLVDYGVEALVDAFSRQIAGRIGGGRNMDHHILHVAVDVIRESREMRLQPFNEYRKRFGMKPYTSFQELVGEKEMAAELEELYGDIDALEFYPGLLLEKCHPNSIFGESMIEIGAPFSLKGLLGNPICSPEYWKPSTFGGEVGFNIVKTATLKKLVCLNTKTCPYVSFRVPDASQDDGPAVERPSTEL

## 1-(7-((3,5-Difluorophenyl)methyl)-2-((nitrooxy)methyl)(2H, 3H-benzo(3,4-e)1, 4-dioxin-6-yl))-4-(methylsulfonyl)benzene and 1-(7-((3,5-difluorophenyl)methyl)-3-((nitrooxy)methyl)(2H, 3H-benzo(e)1,4-dioxin-6-yl))-4-(methylsulfonyl)benzene [Example 19b]
[1]
  COX-1 Inhibition (% at 100 μM): 65%
[2]
  COX-2 Inhibition (% at 10 μM): 35%

## 1-(7-((3,5-Difluorophenyl)methyl)-2-(hydroxymethyl)(2H, 3H-benzo(3,4-e)1,4-dioxin-6-yl))-4-(methylsulfonyl)benzene and 1-(7-((3,5-difluorophenyl)methyl)-3-(hydroxymethyl)(2H, 3H-benzo(e)1,4-dioxin-6-yl))-4-(methylsulfonyl)benzene [Example 19a]
[1]
  COX-1 Inhibition (% at 100 μM): 45%
[2]
  COX-2 Inhibition (% at 10 μM): 15%

## CS(=O)(=O)c1ccc(-c2cc3c(cc2C(=O)C2CCCCC2)OCO3)cc1 [Example 2c, Cyclohexyl 6-(4-(methylsulfonyl)phenyl)(2H-benzo(d)1,3-dioxolan-5-yl) ketone]
[1]; test compound at 30 μM
  COX-1 Inhibition (% at 30 μM): 70 (at 30 μM) %
[2]
  COX-2 Inhibition (% at 10 μM): 85%

## CS(=O)(=O)c1ccc(-c2cc3c(cc2Cc2ccccc2)OCO3)cc1 [Example 3c, 4-(Methylsulfonyl)-1-(6-benzyl(2H-benzo(3,4-d)1,3-dioxolan-5-yl))benzene]
[1]
  COX-1 Inhibition (% at 100 μM): 65%
[2]
  COX-2 Inhibition (% at 10 μM): 50%

## CS(=O)(=O)c1ccc(-c2cc3c(cc2Cc2ccccc2F)OCO3)cc1 [Example 4c, 1-(6-((2-Fluorophenyl)methyl)(2H-benzo(3,4-d)1,3-dioxolan-5-yl))-4-(methylsulfonyl)benzene]
[1]
  COX-1 Inhibition (% at 100 μM): 70%
[2]
  COX-2 Inhibition (% at 10 μM): 60%

## CS(=O)(=O)c1ccc(-c2cc3c(cc2C(=O)c2ccccc2F)OCO3)cc1 [Example 4d, 2-Fluorophenyl 6-(4-(methylsulfonyl)phenyl)(2H-benzo(d)1,3-dioxolan-5-yl) ketone]
[1]
  COX-1 Inhibition (% at 100 μM): 70%
[2]
  COX-2 Inhibition (% at 10 μM): 90%

## CS(=O)(=O)c1ccc(-c2cc3c(cc2Cc2cccc(F)c2)OCO3)cc1 [Example 5c, 1-(6-((3-Fluorophenyl)methyl)(2H-benzo(3,4-d)1,3-dioxolan-5-yl))-4-(methylsulfonyl)benzene]
[1]
  COX-1 Inhibition (% at 100 μM): 55%
[2]
  COX-2 Inhibition (% at 10 μM): 90%

## CS(=O)(=O)c1ccc(-c2cc3c(cc2C(=O)c2cccc(F)c2)OCO3)cc1 [Example 5d, 3-Fluorophenyl 6-(4-(methylsulfonyl)phenyl)(2H-benzo(d)1,3-dioxolan-5-yl) ketone]
[1]
  COX-1 Inhibition (% at 100 μM): 70%
[2]
  COX-2 Inhibition (% at 10 μM): 95%

## CCOC(=O)/C(C)=C/c1cc2c(cc1-c1ccc(S(C)(=O)=O)cc1)OCO2 [Example 7d, Ethyl (2E)-2-methyl-3-(6-(4-(methylsulfonyl)phenyl)(2H-benzo(d)1,3-dioxolan-5-yl))prop-2-enoate]
[1]
  COX-1 Inhibition (% at 100 μM): 5%
[2]
  COX-2 Inhibition (% at 10 μM): 35%

## C/C(=C\c1cc2c(cc1-c1ccc(S(C)(=O)=O)cc1)OCO2)CO [Example 7e, 1-(6-((1E)-3-Hydroxy-2-methylprop-1-enyl)(2H-benzo(3,4-d)1,3-dioxolan-5-yl))-4-(methylsulfonyl)benzene]
[1]
  COX-1 Inhibition (% at 100 μM): 20%
[2]
  COX-2 Inhibition (% at 10 μM): 10%

## CS(=O)(=O)c1ccc(-c2cc3c(cc2CC2CCCCCC2)OCO3)cc1 [Example 11c, 4-(6-(Cycloheptylmethyl)(2H-benzo(3,4-d)1,3-dioxolan-5-yl))-1-(methylsulfonyl)benzene]
[1]
  COX-1 Inhibition (% at 100 μM): 40%
[2]
  COX-2 Inhibition (% at 10 μM): 80%

## Cc1cccc(C(=O)c2cc3c(cc2-c2ccc(S(C)(=O)=O)cc2)OCO3)c1 [Example 12c, 3-Methylphenyl 6-(4-(methylsulfonyl)phenyl)(2H-benzo(d)1,3-dioxolan-5-yl)ketone]
[1]
  COX-1 Inhibition (% at 100 μM): 90%
[2]
  COX-2 Inhibition (% at 10 μM): 90%
